Results reported in publication PMC13210772, “Dual FLT3/MAPK14 Proteolysis-Targeting Chimera (PROTAC) Induces Potent Acute Myeloid Leukemia Cell Death” (Pharmaceuticals, 2026).

Key:
Assay in all cases: NanoBRET CELLinib128
[1] = target: FGR (Homo sapiens, UniProt P09769); details: read-out: Tracer bound
[2] = target: EPHA8 (Homo sapiens, UniProt P29322); details: read-out: Tracer bound
[3] = target: ALK (Homo sapiens, UniProt Q9UM73); details: read-out: Tracer bound
[4] = target: IRAK1 (Homo sapiens, UniProt P51617); details: read-out: Tracer bound
Sequence of IRAK1 (P51617 whole entry): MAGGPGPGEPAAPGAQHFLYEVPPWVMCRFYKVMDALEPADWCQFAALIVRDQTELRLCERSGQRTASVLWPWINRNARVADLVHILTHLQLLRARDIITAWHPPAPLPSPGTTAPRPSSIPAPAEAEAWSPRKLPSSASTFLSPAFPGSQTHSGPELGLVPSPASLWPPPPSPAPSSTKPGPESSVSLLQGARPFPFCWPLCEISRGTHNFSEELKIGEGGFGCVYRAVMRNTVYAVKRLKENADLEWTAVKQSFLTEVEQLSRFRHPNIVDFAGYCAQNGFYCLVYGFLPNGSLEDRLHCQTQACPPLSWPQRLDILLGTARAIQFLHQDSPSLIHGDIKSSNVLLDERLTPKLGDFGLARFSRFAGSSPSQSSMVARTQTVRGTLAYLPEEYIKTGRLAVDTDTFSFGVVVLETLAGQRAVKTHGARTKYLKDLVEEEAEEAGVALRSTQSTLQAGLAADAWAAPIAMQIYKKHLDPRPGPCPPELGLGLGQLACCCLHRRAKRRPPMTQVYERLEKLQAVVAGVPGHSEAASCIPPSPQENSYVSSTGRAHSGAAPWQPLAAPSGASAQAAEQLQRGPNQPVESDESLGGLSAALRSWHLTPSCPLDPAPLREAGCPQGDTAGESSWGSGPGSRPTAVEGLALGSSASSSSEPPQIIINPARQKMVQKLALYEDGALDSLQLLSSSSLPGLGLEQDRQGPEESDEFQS

[5] = target: MARK3 (Homo sapiens, UniProt P27448); details: read-out: Tracer bound
[6] = target: T1, PTK6 (Homo sapiens, UniProt Q13882); assay type: binding; details: 100% no effect, 0% complete tracer displacement, read-out: Tracer bound
T1 construct: Full-length kinase ORF (Promega, Madison, WI, USA) cloned in frame with a NanoLuc-vector was transfected into HEK293T cells; host or cells: HEK293T
T1 sequence (Q13882 whole entry): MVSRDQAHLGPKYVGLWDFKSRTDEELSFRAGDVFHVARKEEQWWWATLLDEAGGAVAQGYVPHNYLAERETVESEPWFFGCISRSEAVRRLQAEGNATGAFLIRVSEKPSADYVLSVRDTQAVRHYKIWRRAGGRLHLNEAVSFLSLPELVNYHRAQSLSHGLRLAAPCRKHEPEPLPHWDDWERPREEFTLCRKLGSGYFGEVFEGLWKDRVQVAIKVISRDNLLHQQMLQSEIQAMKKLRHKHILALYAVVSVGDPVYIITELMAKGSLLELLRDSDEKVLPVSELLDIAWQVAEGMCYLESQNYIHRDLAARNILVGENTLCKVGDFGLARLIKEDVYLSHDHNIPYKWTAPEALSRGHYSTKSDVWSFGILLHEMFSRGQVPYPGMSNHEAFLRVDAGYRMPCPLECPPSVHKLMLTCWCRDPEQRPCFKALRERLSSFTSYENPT

[7] = target: EPHB6 (Homo sapiens, UniProt O15197); details: read-out: Tracer bound
[8] = target: MAPK14 (Homo sapiens, UniProt Q16539); details: 1 µM; 100% no effect, 0% complete tracer displacement
[9] = target: T2, BTK (Homo sapiens, UniProt Q06187); assay type: binding; details: 1 µM; 100% no effect, 0% complete tracer displacement
T2 construct: Full-length kinase ORF (Promega, Madison, WI, USA) cloned in frame with a NanoLuc-vector was transfected into HEK293T cells; host or cells: HEK293T
Protocol: (§1) To get an impression about the binding strength of the PROTAC MA191 and the reference inhibitor MA68 to other kinases besides FLT3-ITD the binding on a kinase panel of further 128 representative protein kinases at 1 μM concentration was tested using the NanoBRET^TM cellular target engagement assay (CELLinib128 assay, CELLinib GmbH, Frankfurt, Germany). […] In none of the 128 kinases MA191 was able to displace the tracer (inhibitor) used by more than 50%, Table S1, Supplementary Information).
(§2) The CELLinib128 assay was performed by CELLinib GmbH, Frankfurt (Germany) as described previously. In brief: Full-length kinase ORF (Promega, Madison, WI, USA) cloned in frame with a NanoLuc-vector was transfected into HEK293T cells in Opti-MEM without phenol red (Life Technologies, Carlsbad, CA, USA) at a density of 2 × 10^5 cells/mL using FuGENE HD (Promega, E2312) and proteins were allowed to express for 20 h. For CDKs, where indicated below, an excess of an activator without an NLuc-fusion was cotransfected. […] The system was allowed to equilibrate at 37 °C for 2 h and 5% CO2 prior to BRET measurements. For PKCs, a chemical activator PMA was added in a final concentration of 1 µM was added together with test compounds and tracers (Promega, V1171). To measure BRET, NanoBRET^TM NanoGlo substrate + extracellular NanoLuc inhibitor (Promega, N2160) were added as per the manufacturer’s protocol, and filtered luminescence was measured (450 nm BP filter (donor) and 610 nm LP filter (acceptor)). For the 1-shot test compounds, data were normalized to the tracer control and the background control or control compound plateau and an average and SD were calculated. […] For the control compounds competitive displacement data were normalized to the tracer Ctrl and the background Ctrl and then plotted and fitted using GraphPad Prism 10 software using a normalized 3-parameter curve fit with the following equation: Y = 100/(1 + 10^X−LogIC50).

[10] = target: T3, MAP3K9 (Homo sapiens, UniProt P80192); assay type: binding; details: 100% no effect, 0% complete tracer displacement, read-out: Tracer bound
T3 construct: Full-length kinase ORF (Promega, Madison, WI, USA) cloned in frame with a NanoLuc-vector was transfected into HEK293T cells; host or cells: HEK293T
Protocol: as §1, §2

[11] = target: T4, TEK (Homo sapiens, UniProt Q02763); assay type: binding; details: 100% no effect, 0% complete tracer displacement, read-out: Tracer bound
T4 construct: Full-length kinase ORF (Promega, Madison, WI, USA) cloned in frame with a NanoLuc-vector was transfected into HEK293T cells; host or cells: HEK293T
T4 sequence (Q02763 23-1124): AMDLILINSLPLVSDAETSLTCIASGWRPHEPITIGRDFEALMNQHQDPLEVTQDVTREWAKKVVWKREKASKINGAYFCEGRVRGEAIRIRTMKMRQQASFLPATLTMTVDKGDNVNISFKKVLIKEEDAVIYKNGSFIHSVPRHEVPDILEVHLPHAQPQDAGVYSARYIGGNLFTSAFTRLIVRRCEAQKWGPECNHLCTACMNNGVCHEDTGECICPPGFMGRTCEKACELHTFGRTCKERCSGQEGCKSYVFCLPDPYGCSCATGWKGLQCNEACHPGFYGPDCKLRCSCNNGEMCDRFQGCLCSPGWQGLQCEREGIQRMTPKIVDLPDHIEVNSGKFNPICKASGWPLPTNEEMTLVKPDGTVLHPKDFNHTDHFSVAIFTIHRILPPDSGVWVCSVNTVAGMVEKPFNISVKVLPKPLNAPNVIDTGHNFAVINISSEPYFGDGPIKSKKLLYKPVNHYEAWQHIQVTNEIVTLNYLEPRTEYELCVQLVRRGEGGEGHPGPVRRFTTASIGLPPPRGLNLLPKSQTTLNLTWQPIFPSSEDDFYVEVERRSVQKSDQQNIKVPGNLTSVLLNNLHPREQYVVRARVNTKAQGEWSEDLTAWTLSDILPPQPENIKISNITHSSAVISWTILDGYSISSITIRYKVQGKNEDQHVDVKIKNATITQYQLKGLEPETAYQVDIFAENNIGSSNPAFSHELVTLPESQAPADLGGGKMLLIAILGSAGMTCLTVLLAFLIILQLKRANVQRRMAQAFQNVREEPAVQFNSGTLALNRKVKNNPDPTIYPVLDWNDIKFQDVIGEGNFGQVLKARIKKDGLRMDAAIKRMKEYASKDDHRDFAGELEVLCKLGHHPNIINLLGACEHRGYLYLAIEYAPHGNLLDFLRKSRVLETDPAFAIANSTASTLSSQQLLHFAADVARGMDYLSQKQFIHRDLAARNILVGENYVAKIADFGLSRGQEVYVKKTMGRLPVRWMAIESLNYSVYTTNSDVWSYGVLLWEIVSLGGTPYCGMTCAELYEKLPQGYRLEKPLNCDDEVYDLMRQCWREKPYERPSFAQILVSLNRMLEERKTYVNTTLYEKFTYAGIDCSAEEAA
Protocol: as §1, §2

[12] = target: T5, ULK2 (Homo sapiens, UniProt Q8IYT8); assay type: binding; details: 100% no effect, 0% complete tracer displacement, read-out: Tracer bound
T5 construct: Full-length kinase ORF (Promega, Madison, WI, USA) cloned in frame with a NanoLuc-vector; host or cells: HEK293T
T5 sequence (Q8IYT8 whole entry): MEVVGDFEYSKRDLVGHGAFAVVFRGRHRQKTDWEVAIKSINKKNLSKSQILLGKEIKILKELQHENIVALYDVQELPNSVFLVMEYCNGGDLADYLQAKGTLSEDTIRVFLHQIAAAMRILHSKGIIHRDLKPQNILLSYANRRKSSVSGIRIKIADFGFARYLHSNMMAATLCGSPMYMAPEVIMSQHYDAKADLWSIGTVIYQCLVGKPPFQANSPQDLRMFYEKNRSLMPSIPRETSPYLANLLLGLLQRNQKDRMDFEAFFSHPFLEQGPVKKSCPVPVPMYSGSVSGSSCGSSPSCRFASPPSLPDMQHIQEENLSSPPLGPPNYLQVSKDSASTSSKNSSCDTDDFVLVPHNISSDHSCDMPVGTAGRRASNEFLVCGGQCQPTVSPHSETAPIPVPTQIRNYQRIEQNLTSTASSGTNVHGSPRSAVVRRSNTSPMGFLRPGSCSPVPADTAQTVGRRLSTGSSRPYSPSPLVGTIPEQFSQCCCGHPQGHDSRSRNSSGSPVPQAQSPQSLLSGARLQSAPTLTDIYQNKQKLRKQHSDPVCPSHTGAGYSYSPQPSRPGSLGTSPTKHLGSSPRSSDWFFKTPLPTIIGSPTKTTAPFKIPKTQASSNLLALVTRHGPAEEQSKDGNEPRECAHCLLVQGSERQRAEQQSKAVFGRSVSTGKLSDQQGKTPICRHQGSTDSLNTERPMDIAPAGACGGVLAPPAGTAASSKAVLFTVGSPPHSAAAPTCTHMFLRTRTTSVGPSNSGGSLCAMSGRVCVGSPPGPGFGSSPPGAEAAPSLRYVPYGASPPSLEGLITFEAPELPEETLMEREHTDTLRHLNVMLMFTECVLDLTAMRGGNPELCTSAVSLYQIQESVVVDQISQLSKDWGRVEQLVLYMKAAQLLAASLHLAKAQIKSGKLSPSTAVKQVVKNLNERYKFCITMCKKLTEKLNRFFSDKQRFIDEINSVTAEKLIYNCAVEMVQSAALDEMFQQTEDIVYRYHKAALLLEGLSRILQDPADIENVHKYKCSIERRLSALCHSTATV
Protocol: as §1, §2

[13] = target: T6, IRAK3 (Homo sapiens, UniProt Q9Y616); assay type: binding; details: 100% no effect, 0% complete tracer displacement, read-out: Tracer bound
T6 construct: Full-length kinase ORF (Promega, Madison, WI, USA) cloned in frame with a NanoLuc-vector was transfected into HEK293T cells; host or cells: HEK293T
Protocol: as §1, §2

[14] = target: T7, STK4 (Homo sapiens, UniProt Q13043); assay type: binding; details: 1 µM; 100% no effect, 0% complete tracer displacement
T7 construct: Full-length kinase ORF (Promega, Madison, WI, USA) cloned in frame with a NanoLuc-vector was transfected into HEK293T cells; host or cells: HEK293T
Protocol: as §1, §2

[15] = target: T8, STK33 (Homo sapiens, UniProt Q9BYT3); assay type: binding; details: 100% no effect, 0% complete tracer displacement, read-out: Tracer bound
T8 construct: Full-length kinase ORF (Promega, Madison, WI, USA) cloned in frame with a NanoLuc-vector was transfected into HEK293T cells; host or cells: HEK293T
Protocol: as §1, §2

[16] = target: T9, CDK18-CCNY (Homo sapiens, UniProt Q07002); assay type: binding; details: 100% no effect, 0% complete tracer displacement, read-out: Tracer bound
T9 construct: Full-length kinase ORF (Promega, Madison, WI, USA) cloned in frame with a NanoLuc-vector was transfected into HEK293T cells; host or cells: HEK293T
Protocol: as §1, §2

[17] = target: TEC (Homo sapiens, UniProt P42680); details: read-out: Tracer bound
[18] = target: T10, FRK (Homo sapiens, UniProt P42685); assay type: binding; details: 100% no effect, 0% complete tracer displacement, read-out: Tracer bound
T10 construct: Full-length kinase ORF (Promega, Madison, WI, USA) cloned in frame with a NanoLuc-vector was transfected into HEK293T cells; host or cells: HEK293T

[19] = target: T11, MARK2 (Homo sapiens, UniProt Q7KZI7); assay type: binding; details: 100% no effect, 0% complete tracer displacement, read-out: Tracer bound
T11 construct: Full-length kinase ORF (Promega, Madison, WI, USA) cloned in frame with a NanoLuc-vector was transfected into HEK293T cells; host or cells: HEK293T

[20] = target: RIPK1 (Homo sapiens, UniProt Q13546); details: read-out: Tracer bound
[21] = target: PLK2 (Homo sapiens, UniProt Q9NYY3); details: 1 µM; 100% no effect, 0% complete tracer displacement
[22] = target: CDK1-CCNB1 (Homo sapiens, UniProt P06493); details: read-out: Tracer bound
[23] = target: CSF1R (Homo sapiens, UniProt P07333); details: read-out: Tracer bound
[24] = target: STK26 (Homo sapiens, UniProt Q9P289); details: read-out: Tracer bound
[25] = target: DDR1 (Homo sapiens, UniProt Q08345); details: read-out: Tracer bound
[26] = target: CSNK1D (Homo sapiens, UniProt P48730); details: read-out: Tracer bound
[27] = target: CLK4 (Homo sapiens, UniProt Q9HAZ1); details: read-out: Tracer bound

Sequence of ALK (Q9UM73 19-1620): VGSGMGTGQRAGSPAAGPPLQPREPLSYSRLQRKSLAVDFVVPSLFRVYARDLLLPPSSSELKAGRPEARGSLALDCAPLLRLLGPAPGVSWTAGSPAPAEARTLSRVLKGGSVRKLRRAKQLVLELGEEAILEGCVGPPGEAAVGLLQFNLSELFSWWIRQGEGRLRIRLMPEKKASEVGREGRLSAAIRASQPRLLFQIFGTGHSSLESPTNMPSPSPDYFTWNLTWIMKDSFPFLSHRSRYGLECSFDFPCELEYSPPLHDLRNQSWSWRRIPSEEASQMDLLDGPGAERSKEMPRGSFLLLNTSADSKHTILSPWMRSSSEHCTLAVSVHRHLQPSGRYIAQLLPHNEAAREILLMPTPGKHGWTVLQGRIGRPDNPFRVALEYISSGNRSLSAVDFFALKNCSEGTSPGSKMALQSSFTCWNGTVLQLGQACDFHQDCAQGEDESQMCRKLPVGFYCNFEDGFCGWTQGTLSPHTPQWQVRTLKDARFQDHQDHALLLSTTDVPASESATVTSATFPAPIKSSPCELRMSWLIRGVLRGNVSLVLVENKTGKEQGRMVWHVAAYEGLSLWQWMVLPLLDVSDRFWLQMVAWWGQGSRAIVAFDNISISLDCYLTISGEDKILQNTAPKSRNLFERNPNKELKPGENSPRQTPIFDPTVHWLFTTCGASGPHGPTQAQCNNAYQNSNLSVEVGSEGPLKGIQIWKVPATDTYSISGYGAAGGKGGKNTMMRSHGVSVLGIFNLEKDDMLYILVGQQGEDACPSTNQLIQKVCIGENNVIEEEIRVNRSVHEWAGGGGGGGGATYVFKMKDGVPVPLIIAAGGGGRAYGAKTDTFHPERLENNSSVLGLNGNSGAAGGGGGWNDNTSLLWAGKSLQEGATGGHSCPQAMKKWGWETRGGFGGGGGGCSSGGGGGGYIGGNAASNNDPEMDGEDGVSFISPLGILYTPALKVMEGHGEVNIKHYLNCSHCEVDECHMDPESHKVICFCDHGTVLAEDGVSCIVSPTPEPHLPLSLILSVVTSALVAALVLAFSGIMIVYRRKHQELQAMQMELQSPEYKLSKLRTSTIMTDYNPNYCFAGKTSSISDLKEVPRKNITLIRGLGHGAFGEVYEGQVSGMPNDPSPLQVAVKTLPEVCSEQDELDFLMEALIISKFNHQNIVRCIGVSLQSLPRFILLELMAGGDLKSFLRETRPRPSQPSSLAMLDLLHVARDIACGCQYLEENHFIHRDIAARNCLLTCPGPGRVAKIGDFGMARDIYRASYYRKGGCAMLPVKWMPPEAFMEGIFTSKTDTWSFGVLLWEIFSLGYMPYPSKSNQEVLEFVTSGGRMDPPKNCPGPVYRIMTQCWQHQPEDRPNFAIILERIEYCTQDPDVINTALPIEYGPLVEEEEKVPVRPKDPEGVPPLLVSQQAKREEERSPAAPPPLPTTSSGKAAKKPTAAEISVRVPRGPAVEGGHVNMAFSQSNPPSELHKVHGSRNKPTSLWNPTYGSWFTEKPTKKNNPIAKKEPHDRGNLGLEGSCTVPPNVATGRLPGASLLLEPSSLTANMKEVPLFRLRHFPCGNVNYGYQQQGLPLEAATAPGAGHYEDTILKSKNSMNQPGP

| SMILES | remaining activity at 1 µM [1] | remaining activity at 1 µM [2] | remaining activity at 1 µM [3] | remaining activity at 1 µM [4] | remaining activity at 1 µM [5] | remaining activity at 1 µM [6] | remaining activity at 1 µM [7] | Tracer bound [8] | Tracer bound [9] | remaining activity at 1 µM [10] | remaining activity at 1 µM [11] | remaining activity at 1 µM [12] | remaining activity at 1 µM [13] | Tracer bound [14] | remaining activity at 1 µM [15] | remaining activity at 1 µM [16] | remaining activity at 1 µM [17] | remaining activity at 1 µM [18] | remaining activity at 1 µM [19] | remaining activity at 1 µM [20] | other results |
| --- | --- | --- | --- | --- | --- | --- | --- | --- | --- | --- | --- | --- | --- | --- | --- | --- | --- | --- | --- | --- | --- |
| CNC(=O)c1cc(Oc2ccc(NC(=O)Nc3cc(C(C)(C)C)on3)cc2)ccn1 [MA68, reference compound] | 119% | 38.9% | 109% | 108% | 105% | 67.6% | 99.5% | 25.9% | 120.0% | 111% | 12.6% | 91.7% | 120% | 98.8% | 94.8% | 28.6% | 107% | 68.2% | 112% | 93.3% | Tracer bound [21]: 98.1%; remaining activity at 1 µM [22]: 98%; remaining activity at 1 µM [23]: 27.1%; remaining activity at 1 µM [24]: 88.5%; remaining activity at 1 µM [25]: 4%; remaining activity at 1 µM [26]: 104%; remaining activity at 1 µM [27]: 93.8% |
| Cc1ncsc1-c1ccc([C@H](C)NC(=O)[C@@H]2C[C@@H](O)CN2C(=O)[C@@H](NC(=O)[C@H]2CC[C@H](C(=O)N3CCN(CCNC(=O)c4cc(Oc5ccc(NC(=O)Nc6cc(C(C)(C)C)on6)cc5)ccn4)CC3)CC2)C(C)(C)C)cc1 [MA191, 4-(4-(3-(5-(tert-Butyl)isoxazol-3-yl)ureido)phenoxy)-N-(2-(4-(trans-4-(((S)-1-((2S,4R)-4-hydroxy-2-(((S)-1-(4-(4-methylthiazol-5-yl)phenyl)ethyl)carbamoyl)pyrrolidin-1-yl)-3,3-dimethyl-1-oxobutan-2-yl)carbamoyl)cyclohexanecarbonyl)piperazin-1-yl)ethyl)picolinamide] | 120% | 120% | 105% | 102% | 102% | 118% | 120% | 70.3% | 120.0% | 108% | 85.7% | 98.6% | 115% | 102.0% | 99% | 95.9% | 113% | 117% | 110% | 104% | Tracer bound [21]: 107.6%; remaining activity at 1 µM [22]: 81.9%; remaining activity at 1 µM [23]: 108%; remaining activity at 1 µM [24]: 82.3%; remaining activity at 1 µM [25]: 85.7%; remaining activity at 1 µM [26]: 120%; remaining activity at 1 µM [27]: 100% |
